Patent publication US20240101576A1, “HETEROCYCLIC INHIBITORS OF EGFR AND/OR HER2, FOR USE IN THE TREATMENT OF CANCER” (Scorpion Therapeutics, Inc., priority 2020, published 2024)

Legend:
Type in all cases: cell-based
[1] = target: T1, EGFR exon 19del (Ba/F3 cells) (Homo sapiens, UniProt P00533); assay: Inhibitor activity on EGFR phosphorylation (pEGFR AlphaLISA, 2 h), Ba/F3 EGFR exon 19del; details: read-out: Del19 IC50 (pEGFR)
Method in brief: (§1)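 Steps: seed cells (Ba/F3 50K, CUTO14 12.5K per well); add 3-fold, 10-point compound dilution; incubate 2 h; lyse 1 hr; add acceptor then donor beads (1.5 hrs, RT, dark); read AlphaLISA signal for IC50.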

[2] = target: T2, EGFR exon 20 SVD Ins D770_N771 (Ba/F3 cells) (Homo sapiens, UniProt P00533, INS770SVD); assay: Inhibitor activity on EGFR phosphorylation (pEGFR AlphaLISA, 2 h), Ba/F3 EGFR exon 20 SVD Ins
T2 construct: expressed in transfected cells; host or cells: Ba/F3 (murine pro-B cells), retroviral transduction, puromycin selection, IL3-independent pool
T2 sequence (P00533 with tags, fused parts or gaps INS770SVD): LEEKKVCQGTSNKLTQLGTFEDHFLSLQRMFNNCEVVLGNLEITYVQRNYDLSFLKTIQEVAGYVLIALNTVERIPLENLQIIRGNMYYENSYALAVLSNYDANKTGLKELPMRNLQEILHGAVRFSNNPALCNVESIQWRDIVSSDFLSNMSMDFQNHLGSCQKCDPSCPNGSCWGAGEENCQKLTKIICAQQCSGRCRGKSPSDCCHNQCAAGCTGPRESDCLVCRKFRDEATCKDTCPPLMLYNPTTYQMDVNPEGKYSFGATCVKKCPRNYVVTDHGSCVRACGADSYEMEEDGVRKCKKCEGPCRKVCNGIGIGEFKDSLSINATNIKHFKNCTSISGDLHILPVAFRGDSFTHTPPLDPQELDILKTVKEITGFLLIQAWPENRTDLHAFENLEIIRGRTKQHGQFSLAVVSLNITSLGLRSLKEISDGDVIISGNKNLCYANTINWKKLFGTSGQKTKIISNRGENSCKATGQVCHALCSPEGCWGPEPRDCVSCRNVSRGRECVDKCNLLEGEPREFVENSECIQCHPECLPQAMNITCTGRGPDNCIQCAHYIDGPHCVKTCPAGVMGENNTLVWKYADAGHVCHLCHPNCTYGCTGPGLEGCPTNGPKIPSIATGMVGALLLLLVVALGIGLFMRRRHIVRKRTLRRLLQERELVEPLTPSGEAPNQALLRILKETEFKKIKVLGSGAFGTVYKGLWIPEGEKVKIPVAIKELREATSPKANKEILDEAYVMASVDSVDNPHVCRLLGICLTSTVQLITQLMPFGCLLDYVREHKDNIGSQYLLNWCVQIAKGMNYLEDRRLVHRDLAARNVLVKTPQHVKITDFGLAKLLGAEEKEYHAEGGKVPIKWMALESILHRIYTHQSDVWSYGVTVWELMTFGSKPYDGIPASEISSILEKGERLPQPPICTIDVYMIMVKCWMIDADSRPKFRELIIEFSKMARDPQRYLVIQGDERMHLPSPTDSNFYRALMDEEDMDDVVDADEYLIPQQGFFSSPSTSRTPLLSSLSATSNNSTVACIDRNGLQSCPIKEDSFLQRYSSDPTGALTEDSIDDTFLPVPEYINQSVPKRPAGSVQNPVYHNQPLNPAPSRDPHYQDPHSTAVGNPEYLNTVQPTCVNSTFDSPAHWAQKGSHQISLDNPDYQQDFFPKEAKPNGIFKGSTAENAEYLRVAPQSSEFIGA
Excerpt: Example B. Inhibitor Activity on EGFR phosphorylation (pEGFR)
EGFR mutant Ba/F3 cells were generated by transduction with retrovirus containing vectors expressing EGFR L858R, EGFR exon 19del, EGFR L858R/C797S, EGFR exon 20 NPG Ins D770_N771, EGFR exon 20 ASV Ins V769_D770, or EGFR exon 20 SVD Ins D770_N771 genes along with a puromycin selection marker. Transduced cells are selected with puromycin for 7 days and are then be transferred into culture media without Interleukin 3 (IL3). Surviving cells are confirmed to express EGFR by Western blot and maintained as a pool. CUTO14 cells were obtained from Dr. Robert C. Doebele at the University of Colorado. The IC50 date are included in Table 6 and Table 7.
1.1 Cells are harvested from flask into cell culture medium and the cell number counted.
1.2 Cells are diluted with culture medium to the desired density and 40 μL of cell suspension is added into each well of 384-well cell culture plate and the seeding density is 50K cells/well (Ba/F3) or 12.5K cells/well (CUTO14).
2 Compound Preparation and Treatment
2.1 Test compounds are dissolved to 10 mM in a DMSO stock solution. 45 μL of stock solution is transferred to a 384 polypropylene plate (pp-plate). Perform 3-fold, 10-point dilution via transferring 15 μL compound into 30 μL DMSO using a TECAN (EVO200) liquid handler.
2.2 Spin plates at room temperature at 1,000 RPM for 1 minute.
2.3 Transfer 5 nL of diluted compound from compound source plate into the cell plate.
2.4 After compound treatment for 2 hours, perform pEGFR detection by AlphaLISA for compound treatment plates as described in “Detection” section.
3 Detection by pEGFR AlphaLISA (Perkin-Elmer)
3.1 Plates are removed from incubators and equilibrated at room temperature for 10 minutes, and media was removed
3.2 10 μL of lysis buffer is added and plates shaken at 600 rpm for 1 hr.
3.3 Prepare acceptor mix just before use and dispense 5 μL of acceptor mix to all the wells. Shake 350 rpm for Ihr in the dark
3.4 Prepare donor mix under low light conditions prior to use. Dispense 5 μL of donor mix to all the wells. Mix well on the shaker, seal and wrap in aluminum foil and incubate 1.5 hrs at room temperature in the dark
3.5 Transfer 18.5 μL mixture to OptiPlate 384, and read using an Envision. The IC50 date were included in Table 6 and Table 7.

[3] = target: T3, EGFR L858R/C797S (Ba/F3 cells) (Homo sapiens, UniProt P00533, C797S/L858R); assay: Inhibitor activity on EGFR-dependent cell growth (CellTiter-Glo, 72 h), Ba/F3 EGFR L858R/C797S; details: read-out: BaF3 L858R/C797S IC50
T3 construct: expressed in transfected cells; host or cells: Ba/F3 (murine pro-B cells), retroviral transduction, puromycin selection, IL3-independent pool
Method in brief: (§2)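 For each mutant line, growth depends on EGFR signalling in the absence of IL3. Density per well: 400 for L858R, 600 for the C797S double mutant, 800 for exon 19del and FQEA. Ten threefold dilutions were applied for 72 h. %Inhibition = 100×(DMSO − sample)/(DMSO − medium blank).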

[4] = target: T4, EGFR exon 20 FQEA Ins A763_V764 (Ba/F3 cells) (Homo sapiens, UniProt P00533, INS763FQEA); assay: Inhibitor activity on EGFR-dependent cell growth (CellTiter-Glo, 72 h), Ba/F3 EGFR exon 20 FQEA Ins; details: read-out: BaF3 FQEA IC50
T4 construct: expressed in transfected cells; host or cells: Ba/F3 (murine pro-B cells), retroviral transduction, puromycin selection, IL3-independent pool
T4 sequence (P00533 with tags, fused parts or gaps INS763FQEA): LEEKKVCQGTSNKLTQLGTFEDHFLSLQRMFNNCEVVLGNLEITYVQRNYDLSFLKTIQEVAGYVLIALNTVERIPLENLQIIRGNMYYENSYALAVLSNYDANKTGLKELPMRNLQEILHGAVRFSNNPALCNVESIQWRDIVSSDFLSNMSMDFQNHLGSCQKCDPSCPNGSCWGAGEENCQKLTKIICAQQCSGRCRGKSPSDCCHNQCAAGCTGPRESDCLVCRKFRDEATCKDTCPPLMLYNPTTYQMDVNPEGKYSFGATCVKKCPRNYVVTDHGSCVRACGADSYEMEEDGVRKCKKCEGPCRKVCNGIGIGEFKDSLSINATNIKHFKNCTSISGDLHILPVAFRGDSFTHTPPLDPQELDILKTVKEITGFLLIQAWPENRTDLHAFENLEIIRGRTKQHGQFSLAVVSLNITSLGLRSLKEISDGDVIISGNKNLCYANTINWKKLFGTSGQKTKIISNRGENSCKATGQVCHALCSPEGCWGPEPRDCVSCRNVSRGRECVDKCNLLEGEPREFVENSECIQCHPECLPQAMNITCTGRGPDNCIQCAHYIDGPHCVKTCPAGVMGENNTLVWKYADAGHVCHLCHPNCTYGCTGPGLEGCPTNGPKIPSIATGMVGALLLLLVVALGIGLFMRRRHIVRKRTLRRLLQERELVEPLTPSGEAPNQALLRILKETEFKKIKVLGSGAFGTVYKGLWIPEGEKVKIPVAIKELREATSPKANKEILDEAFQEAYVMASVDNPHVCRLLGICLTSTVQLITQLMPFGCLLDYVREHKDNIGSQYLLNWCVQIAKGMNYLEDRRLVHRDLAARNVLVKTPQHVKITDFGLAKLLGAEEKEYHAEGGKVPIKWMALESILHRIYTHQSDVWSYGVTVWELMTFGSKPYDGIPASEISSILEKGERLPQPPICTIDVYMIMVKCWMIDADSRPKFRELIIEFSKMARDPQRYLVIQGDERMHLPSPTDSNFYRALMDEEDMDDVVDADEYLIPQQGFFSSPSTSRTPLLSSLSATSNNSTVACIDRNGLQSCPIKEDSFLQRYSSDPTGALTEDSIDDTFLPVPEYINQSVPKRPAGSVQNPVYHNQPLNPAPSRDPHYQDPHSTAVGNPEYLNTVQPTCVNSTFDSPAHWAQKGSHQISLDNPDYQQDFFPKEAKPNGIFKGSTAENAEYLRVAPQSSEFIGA
Method in brief: as §2

EGFR L858R (Ba/F3 cells) [5] = target: T5, EGFR L858R (Ba/F3 cells) (Homo sapiens, UniProt P00533, L858R); assay: Inhibitor activity on EGFR-dependent cell growth (CellTiter-Glo, 72 h), Ba/F3 EGFR L858R; details: read-out: BaF3 L858R IC50
T5 construct: expressed in transfected cells; host or cells: Ba/F3 (murine pro-B cells), retroviral transduction, puromycin selection, IL3-independent pool
Method in brief: as §2

EGFR (CUTO14 cells) = EGFR (CUTO14 cells) (Homo sapiens, UniProt P00533); assay: Inhibitor activity on EGFR phosphorylation (pEGFR AlphaLISA, 2 h), CUTO14 cells
Method in brief: as §1

[6] = target: T6, EGFR exon 20 NPG Ins D770_N771 (Ba/F3 cells) (Homo sapiens, UniProt P00533, INS770NPG); assay: Inhibitor activity on EGFR phosphorylation (pEGFR AlphaLISA, 2 h), Ba/F3 EGFR exon 20 NPG Ins
T6 construct: expressed in transfected cells; host or cells: Ba/F3 (murine pro-B cells), retroviral transduction, puromycin selection, IL3-independent pool
Method in brief: as §1

[7] = target: T7, EGFR exon 20 ASV Ins V769_D770 (Ba/F3 cells) (Homo sapiens, UniProt P00533, INS769ASV); assay: Inhibitor activity on EGFR-dependent cell growth (CellTiter-Glo, 72 h), Ba/F3 EGFR exon 20 ASV Ins; details: read-out: BaF3 ASV IC50
T7 construct: expressed in transfected cells; host or cells: Ba/F3 (murine pro-B cells), retroviral transduction, puromycin selection, IL3-independent pool
T7 sequence (P00533 with tags, fused parts or gaps INS769ASV): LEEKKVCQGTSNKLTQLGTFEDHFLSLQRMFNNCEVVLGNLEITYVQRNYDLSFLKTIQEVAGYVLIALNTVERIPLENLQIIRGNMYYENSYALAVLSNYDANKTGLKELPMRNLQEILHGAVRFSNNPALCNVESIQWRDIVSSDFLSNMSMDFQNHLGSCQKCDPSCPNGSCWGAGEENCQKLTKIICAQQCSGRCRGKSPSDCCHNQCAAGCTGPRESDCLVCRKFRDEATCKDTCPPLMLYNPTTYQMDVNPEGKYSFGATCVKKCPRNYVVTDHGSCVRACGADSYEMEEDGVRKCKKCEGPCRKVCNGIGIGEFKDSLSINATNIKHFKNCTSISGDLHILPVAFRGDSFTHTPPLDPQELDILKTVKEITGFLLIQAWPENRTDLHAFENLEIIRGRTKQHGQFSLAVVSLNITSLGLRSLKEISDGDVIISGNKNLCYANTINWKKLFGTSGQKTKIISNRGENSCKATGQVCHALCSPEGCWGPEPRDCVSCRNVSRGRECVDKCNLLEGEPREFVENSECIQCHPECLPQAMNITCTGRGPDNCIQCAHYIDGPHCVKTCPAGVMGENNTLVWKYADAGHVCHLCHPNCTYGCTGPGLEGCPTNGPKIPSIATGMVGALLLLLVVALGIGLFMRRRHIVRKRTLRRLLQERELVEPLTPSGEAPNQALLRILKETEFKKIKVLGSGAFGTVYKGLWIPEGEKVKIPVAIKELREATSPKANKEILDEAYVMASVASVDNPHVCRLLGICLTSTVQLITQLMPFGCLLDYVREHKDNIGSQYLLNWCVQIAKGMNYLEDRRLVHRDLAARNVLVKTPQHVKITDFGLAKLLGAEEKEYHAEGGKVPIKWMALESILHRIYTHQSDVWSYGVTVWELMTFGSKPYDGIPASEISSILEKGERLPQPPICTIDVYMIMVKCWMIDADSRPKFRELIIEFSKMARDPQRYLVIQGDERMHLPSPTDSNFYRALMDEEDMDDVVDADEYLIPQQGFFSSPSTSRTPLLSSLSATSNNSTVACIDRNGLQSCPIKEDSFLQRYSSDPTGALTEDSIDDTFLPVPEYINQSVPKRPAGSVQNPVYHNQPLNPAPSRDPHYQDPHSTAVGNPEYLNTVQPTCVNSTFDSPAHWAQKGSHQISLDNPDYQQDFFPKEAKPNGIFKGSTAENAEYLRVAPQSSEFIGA
Method in brief: (§3)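 IC50s derive from a sigmoidal dose–response fit of CellTiter-Glo signal. The signal was normalised between […]-treated cells and cell-free medium. Ba/F3 mutant-EGFR cells, seeded at 400–800/well depending on the line, had 72 h of exposure to a 10-point, 3-fold compound series.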

[8] = target: T7, EGFR exon 20 ASV Ins V769_D770 (Ba/F3 cells); assay: Inhibitor activity on EGFR phosphorylation (pEGFR AlphaLISA, 2 h), Ba/F3 EGFR exon 20 ASV Ins; details: EGFR phosphorylation, AlphaLISA, 2 hours; read-out: ASV IC50 (pEGFR)
Method in brief: as §1

[9] = target: T6, EGFR exon 20 NPG Ins D770_N771 (Ba/F3 cells); assay: Inhibitor activity on EGFR-dependent cell growth (CellTiter-Glo, 72 h), Ba/F3 EGFR exon 20 NPG Ins; details: read-out: BaF3 NPG IC50
Method in brief: as §3

EGFR WT (Ba/F3 cells) = target: T8, EGFR WT (Ba/F3 cells) (Homo sapiens, UniProt P00533); assay: Inhibitor activity on EGFR-dependent cell growth (CellTiter-Glo, 72 h), Ba/F3 EGFR WT; details: read-out: BaF3 WT IC50
T8 construct: expressed in transfected cells; host or cells: Ba/F3 (murine pro-B cells), retroviral transduction, puromycin selection, maintained with EGF
T8 sequence (P00533 25-1210): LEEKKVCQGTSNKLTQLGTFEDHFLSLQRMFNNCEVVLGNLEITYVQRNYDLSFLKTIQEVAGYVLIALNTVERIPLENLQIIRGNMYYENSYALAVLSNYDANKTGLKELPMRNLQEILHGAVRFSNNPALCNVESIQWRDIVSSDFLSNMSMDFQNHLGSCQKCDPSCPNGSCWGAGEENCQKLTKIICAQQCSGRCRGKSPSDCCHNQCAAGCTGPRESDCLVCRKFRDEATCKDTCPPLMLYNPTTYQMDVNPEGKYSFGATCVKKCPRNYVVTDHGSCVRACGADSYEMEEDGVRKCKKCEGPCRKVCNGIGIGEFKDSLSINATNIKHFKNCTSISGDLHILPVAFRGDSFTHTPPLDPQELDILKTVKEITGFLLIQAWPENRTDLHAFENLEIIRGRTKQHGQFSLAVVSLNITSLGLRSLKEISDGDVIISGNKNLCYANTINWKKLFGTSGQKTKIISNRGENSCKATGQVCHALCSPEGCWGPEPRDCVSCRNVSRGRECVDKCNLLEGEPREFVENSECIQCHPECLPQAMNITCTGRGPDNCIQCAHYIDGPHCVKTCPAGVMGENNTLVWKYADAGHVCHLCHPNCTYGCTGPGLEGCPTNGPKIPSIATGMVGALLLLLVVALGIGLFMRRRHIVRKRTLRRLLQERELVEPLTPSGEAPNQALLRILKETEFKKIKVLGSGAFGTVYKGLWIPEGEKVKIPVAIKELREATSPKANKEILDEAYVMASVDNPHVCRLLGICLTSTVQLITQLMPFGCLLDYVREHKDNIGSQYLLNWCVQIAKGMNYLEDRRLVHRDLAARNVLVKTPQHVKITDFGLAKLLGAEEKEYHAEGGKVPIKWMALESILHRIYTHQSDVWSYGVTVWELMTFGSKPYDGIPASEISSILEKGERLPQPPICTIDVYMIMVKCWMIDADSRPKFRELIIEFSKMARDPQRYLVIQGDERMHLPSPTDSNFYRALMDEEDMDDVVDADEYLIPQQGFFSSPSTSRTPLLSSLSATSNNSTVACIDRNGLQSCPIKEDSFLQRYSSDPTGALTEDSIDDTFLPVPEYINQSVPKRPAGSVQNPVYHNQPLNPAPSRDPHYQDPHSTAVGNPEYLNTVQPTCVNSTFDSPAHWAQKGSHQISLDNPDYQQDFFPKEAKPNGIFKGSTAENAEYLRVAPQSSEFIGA
Method in brief: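 This growth assay used Ba/F3 cells that depend on wild-type EGFR and are kept in EGF without IL3. Compounds were made up as 10 mM DMSO stocks and diluted 3-fold over 10 points. 120 nL went onto 600 cells/well. After 72 hours, 40 μL CellTiter-Glo was added and luminescence read on EnVision after 30 min.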

[10] = target: T2, EGFR exon 20 SVD Ins D770_N771 (Ba/F3 cells); assay: Inhibitor activity on EGFR-dependent cell growth (CellTiter-Glo, 72 h), Ba/F3 EGFR exon 20 SVD Ins; details: read-out: BaF3 SVD IC50
Method in brief: as §3

[11] = target: T1, EGFR exon 19del (Ba/F3 cells); assay: Inhibitor activity on EGFR-dependent cell growth (CellTiter-Glo, 72 h), Ba/F3 EGFR exon 19del; details: Ba/F3 EGFR exon 19del cell growth, read-out: BaF3 Del19 IC50
Method in brief: as §2

[12] = target: T3, EGFR L858R/C797S (Ba/F3 cells); assay: Inhibitor activity on EGFR phosphorylation (pEGFR AlphaLISA, 2 h), Ba/F3 EGFR L858R/C797S
Method in brief: as §1

EGFR L858R (Ba/F3 cells) [13] = target: T5, EGFR L858R (Ba/F3 cells); assay: Inhibitor activity on EGFR phosphorylation (pEGFR AlphaLISA, 2 h), Ba/F3 EGFR L858R
Method in brief: as §1

Row | Compound | IC50 [1] [µM] | IC50 [2] [µM] | IC50 [3] [µM] | IC50 [4] [µM] | IC50 (EGFR L858R (Ba/F3 cells) [5]) [µM] | IC50 (EGFR (CUTO14 cells)) [µM] | IC50 [6] [µM] | IC50 [7] [µM] | IC50 [8] [µM] | IC50 [9] [µM] | IC50 (EGFR WT (Ba/F3 cells)) [µM] | IC50 [10] [µM] | IC50 [11] [µM] | IC50 [12] [µM] | IC50 (EGFR L858R (Ba/F3 cells) [13]) [µM]
1 | COCC[C@H]1CNC(=O)c2c1[nH]c(-c1ccnc(C)n1)c2Nc1cccc(Cl)c1OC [463b] | < 0.1 | < 0.1 | < 0.1 | < 0.1 | < 0.1 | < 0.1 | < 0.1 | < 0.1 | < 0.1 | < 0.1 | 0.1 to 1 | < 0.1 | < 0.1 | < 0.1 | < 0.1
2 | COCC[C@@H]1CNC(=O)c2c1[nH]c(-c1ccncc1F)c2Nc1cccc(F)c1OC [421b] | < 0.1 | < 0.1 | < 0.1 | < 0.1 | < 0.1 | < 0.1 | < 0.1 | < 0.1 | < 0.1 | < 0.1 | 0.1 to 1 | < 0.1 | < 0.1 | < 0.1 | < 0.1
3 | COc1c(F)cccc1Nc1c(-c2ccncc2F)[nH]c2c1C(=O)NC[C@@H]2CC1COCCO1 (stereo in doubt) [Compound 525, (7S)-7-[(2R)-1,4-dioxan-2-ylmethyl]-3-[(3-fluoro-2-methoxyphenyl)amino]-2-(3-fluoropyridin-4-yl)-1H,5H,6H,7H-pyrrolo[3,2-c]pyridin-4-one] | < 0.1 | < 0.1 | < 0.1 | < 0.1 | < 0.1 | < 0.1 | < 0.1 | < 0.1 | < 0.1 | < 0.1 | 0.1 to 1 | < 0.1 | < 0.1 | < 0.1 | < 0.1

Other lines, results leading:

Row | IC50 [1] [µM] | IC50 [2] [µM] | IC50 [3] [µM] | IC50 [4] [µM] | IC50 (EGFR L858R (Ba/F3 cells) [5]) [µM] | IC50 (EGFR (CUTO14 cells)) [µM] | IC50 [6] [µM] | IC50 [7] [µM] | IC50 [8] [µM] | IC50 [9] [µM] | IC50 (EGFR WT (Ba/F3 cells)) [µM] | IC50 [10] [µM] | IC50 [11] [µM] | IC50 [12] [µM] | IC50 (EGFR L858R (Ba/F3 cells) [13]) [µM] | Compound
4 | < 0.1 | < 0.1 | < 0.1 | < 0.1 | < 0.1 | < 0.1 | < 0.1 | < 0.1 | < 0.1 | < 0.1 | < 0.1 | < 0.1 | < 0.1 | < 0.1 | < 0.1 | COc1c(F)cccc1Nc1c(-c2ccncc2F)[nH]c2c1C(=O)NCC2C[C@@H]1COCCO1 (single isomer, unassigned) [Compound 566]
5 | < 0.1 | < 0.1 | < 0.1 | < 0.1 | < 0.1 | < 0.1 | < 0.1 |  | < 0.1 | < 0.1 | 0.1 to 1 |  | < 0.1 | < 0.1 | < 0.1 | COc1c(Cl)cccc1Nc1c(-c2ccnc(C)n2)[nH]c2c1C(=O)NC[C@H]2C[C@@H]1COCCO1 (single isomer, unassigned) [Compound 570]
6 | < 0.1 | < 0.1 | < 0.1 | 0.1 to 1 | < 0.1 | < 0.1 | < 0.1 |  | < 0.1 | < 0.1 | 0.1 to 1 |  | < 0.1 | < 0.1 | < 0.1 | COc1c(Cl)cccc1Nc1c(-c2ccnc(C)n2)[nH]c2c1C(=O)NC[C@@H]2CC1COCCO1 (stereo in doubt) [Compound 551, (7S)-3-[(3-chloro-2-methoxyphenyl)amino]-7-[(2R)-1,4-dioxan-2-ylmethyl]-2-(2-methylpyrimidin-4-yl)-1H,5H,6H,7H-pyrrolo[3,2-c]pyridin-4-one]
7 | < 0.1 | < 0.1 | < 0.1 | < 0.1 | < 0.1 | < 0.1 | < 0.1 |  | < 0.1 | < 0.1 | < 0.1 |  | < 0.1 | < 0.1 | < 0.1 | COCC[C@H]1CNC(=O)c2c1[nH]c(-c1ccncc1F)c2Nc1cccc(Cl)c1OC [Compound 747]
